In the supplement of paper PMC10307832:

How the values were obtained:
Assay in all cases: relative viability (nuclei count vs DMSO), 5 days (fraction); higher = more cells survive
BGJ398 + Lapatinib = compound: CCN1CCN(c2ccc(Nc3cc(N(C)C(=O)Nc4c(Cl)c(OC)cc(OC)c4Cl)ncn3)cc2)CC1 [BGJ398] + CS(=O)(=O)CCNCc1ccc(-c2ccc3ncnc(Nc4ccc(OCc5cccc(F)c5)c(Cl)c4)c3c2)o1 [Lapatinib] (partner 2 µM)
Summary of the method: (§1)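 Relative viability was taken as the ratio of nuclei in treated wells to nuclei in vehicle wells. Lung cancer cell lines in 1536-well plates received compounds by pin tool one day after seeding, either one drug alone or a fixed anchor-drug dose plus five library-drug doses (not always all listed) in √10 steps. Nuclei were counted on 4× images after 5 days of treatment, and values are medians of duplicate plates.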

[1] = compound: C1=CC2=NC=CN=C2C=C1/C=C/3\C(=O)NC(=O)S3 + CS(=O)(=O)N1CCN(Cc2cc3nc(-c4cccc5[nH]ncc45)nc(N4CCOCC4)c3s2)CC1 [Pictilisib] (partner 1 µM)
Summary of the method: as §1

[2] = compound: C1=CC2=NC=CN=C2C=C1/C=C/3\C(=O)NC(=O)S3 + CS(=O)(=O)CCNCc1ccc(-c2ccc3ncnc(Nc4ccc(OCc5cccc(F)c5)c(Cl)c4)c3c2)o1 [Lapatinib] (partner 2 µM)
Summary of the method: as §1

BGJ398 + Alpelisib = compound: CCN1CCN(c2ccc(Nc3cc(N(C)C(=O)Nc4c(Cl)c(OC)cc(OC)c4Cl)ncn3)cc2)CC1 [BGJ398] + Cc1nc(NC(=O)N2CCC[C@H]2C(N)=O)sc1-c1ccnc(C(C)(C)C(F)(F)F)c1 [Alpelisib] (partner 2 µM)
Summary of the method: as §1

Cell Line	relative viability (BGJ398 + Lapatinib; first compound 0.01 µM)	relative viability (BGJ398 + Lapatinib; first compound 0.03162 µM)	relative viability (BGJ398 + Lapatinib; first compound 0.1 µM)	relative viability (BGJ398 + Lapatinib; first compound 0.3162 µM)	relative viability (BGJ398 + Lapatinib; first compound 1 µM)	relative viability ([1]; first compound 0.02 µM)	relative viability ([1]; first compound 0.06325 µM)	relative viability ([1]; first compound 0.2 µM)	relative viability ([1]; first compound 0.6325 µM)	relative viability ([1]; first compound 2 µM)	relative viability ([2]; first compound 0.02 µM)	relative viability ([2]; first compound 0.06325 µM)	relative viability ([2]; first compound 0.2 µM)	relative viability ([2]; first compound 0.6325 µM)	relative viability ([2]; first compound 2 µM)	relative viability (BGJ398 + Alpelisib; first compound 0.01 µM)	relative viability (BGJ398 + Alpelisib; first compound 0.03162 µM)	relative viability (BGJ398 + Alpelisib; first compound 0.1 µM)	relative viability (BGJ398 + Alpelisib; first compound 0.3162 µM)	relative viability (BGJ398 + Alpelisib; first compound 1 µM)
NCI-H2228	1.01	1.24	0.742	1	1.04	0.384	0.36	0.441	0.274	0.22	0.946	1.15	0.97	0.903	0.932	0.609	0.616	0.776	0.718	0.696
IA-LM	0.864	0.742	0.846	0.704	0.758		0.524	0.308	0.333	0.286	0.69		0.698	0.771	0.65	0.541	0.898	0.733	0.625	0.702
NCI-H647	1.03	1.11	1.21	0.949	1.06	0.546	0.483	0.624	0.368	0.271	1.06	1.75	1.15	0.957	0.903	1.05	1.19	1.06	1.26	1.15
SK-MES-1	0.414	0.44	0.448	0.396	0.376	0.385	0.391	0.375	0.353	0.335	0.374	0.656	0.486	0.397	0.406	0.826	1	0.815	0.866	0.57
NCI-H2170	0.289	0.197	0.256	0.268	0.264	0.296	0.273	0.369	0.28	0.258	0.278	0.271	0.272	0.251	0.246	0.815	0.756	0.938	0.734	0.853
NCI-H2085	0.744	0.784	0.802	0.677	0.663	0.417	0.394	0.533	0.455	0.486	0.725	0.635	0.785	0.755	0.713	0.96	1.01	0.93	0.975	0.921
SW 1573	1.03	1.12	1.08	1.02	0.984	0.525	0.511	0.524	0.555	0.441	1.09	1.36	0.982	0.928	0.978	0.689	0.961	0.765	0.761	0.789
NCI-H727	1.05	0.799	1.22	0.789	0.648	0.432	0.394	0.367	0.328	0.198	0.803	0.706	0.918	0.795	0.297	0.625	0.665	0.524	0.578	0.5
